One data set has as its system U266 (MM). Nature of the data set: cells. It is filed as cell-based. Here is the method:
(§1) Cell viability assays were performed by plating log-phase cells in RPMI complete media with 20% FBS at 1*10^5 cells/mL, with concentrations of 6-ETI or phospho-6-ETI ranging from 0.1 nM to 100 μM. ATP content at 24, 48 and 72 hours post-treatment was measured by the CellTiter-Glo kit (Promega, Madison, Wis.), or by Trypan blue assay as indicated. The LC50 for 6-ETI in each cell line was determined using online EC50 software at changbioscience.com or using GraphPad Prism to determine the LC50 for 6-ETI, phospho-6-ETI and nucleoside analogs in MM cell lines and primary MM patient samples.

In a further data set the test system is BC3 (PEL). Nature of the data set: cells. It is filed as cell-based. As to the method: as §1
The subject of the next data set is IBL-1 (EBV+ DLBCL). The data set is described as follows: cells. It is filed as cell-based. As to the method:
as §1

For another data set, the target named is ADK (Homo sapiens, UniProt P55263). Particulars: known values; read-out: IC50 of ADK inhibition in intact cells; cited from earlier work.
The subject of data set [1] is BC3 cells treated with 6-ETI. Nature of the data set: 6-ETI viability curves after ADK inhibitor pre-treatment. It is filed as cell-based, human. Conditions: pre-treatment with 1 μM ADK inhibitor. Here is the method: as §1
Another data set deals with PEL cell line. The data set is described as follows: PEL cell line viability assay of C8-modified analogs. It is filed as cell-based. As to the method: as §1
For data set [2], the system named is BC3NFRen-luc #3 PEL xenograft. The data set is described as follows: PEL xenograft model (BC3NFRen-luc #3 in NOD-SCID mice). It is filed as in vivo. Particulars: 200 mg/kg for 9 days. As to the method:
The BC3 in vivo xenograft model was set up as previously described (6). Essentially, ˜4-6 week old male NOD-SCID mice (Jackson Labs Stock# 001303) were injected intraperitoneally (I.P.) with 1*10^7 BC3NFRen-luc #3 cells and followed by in vivo imaging every three days. After imaging on day 5 to confirm establishment of the tumor, the mice were randomized to vehicle, low dose and high dose cohorts, with average tumor burden distributed evenly across the groups. Each dose cohort contained 10 mice. Mice were treated for nine days beginning at randomization with vehicle (PBS-Tween80), low dose 6-ETI (150 mg/kg/day), or high dose 6-ETI (300 mg/kg/day). Mice were treated with 200 mg/kg of the 6-ETI analogs (phospho-6ETI and 6-ETI cAMP) for 9 days. We monitored mice for tumor growth by live imaging and weighing, with sacrifice point determined to be a net gain or loss of 10% body weight over a week. Upon reappearance of refractory tumors, mice were re-treated for a further 9-day interval, and followed for a total of 100 days. Compound effects were assessed on overall survival, progression-free survival and tumor burden by Kaplan-Meier curves generated using GraphPad Prism software, and determined p values by 2-tailed analysis with log-rank tests.

Data set [3] has as its system sensitive cell lines (expressing ADK at high levels). Nature of the data set: Viability in 6-ETI-sensitive cell lines. It is filed as cell-based. Particulars: p6-ETI: sensitive ADK-high lines; c6-ETI: PEL, MM, colon and pancreatic adenocarcinoma lines. As to the method:
as §1

Data set [4] has as its system colon (RKO, HCT116, DID1) and pancreatic (PA-TU-8988T) cancer cell lines. Nature of the data set: Viability of adenocarcinoma cell lines. It is filed as cell-based. Here is the method: as §1
The test system of data set [5] is MM cell lines JJN3, MM1S, U266 and CAG. Nature of the data set: CellTiter-Glo viability assay, MM cell lines. It is filed as cell-based. Conditions: 48 hrs. As to the method: as §1
The test system of data set [6] is ADK-low resistant cell lines. The data set is described as follows: Viability in ADK-low resistant cell lines. It is filed as cell-based. Particulars: some lines, not all. As to the method: as §1
[7] abbreviates: Homo sapiens, U-266, 48 h, read-out: LC50 U266 (MM) in nM.
[8] abbreviates: Homo sapiens, 48 h, read-out: LC50 BC3 (PEL) in nM.
Setting [9] is: Homo sapiens, 48 h, read-out: LC50 IBL-1 (DLBCL).
Setting [10] is: Homo sapiens, U-266, 48 h, read-out: LC50 U266 (MM).
The mark [11] stands for this setting: Homo sapiens, 48 h, read-out: LC50 BC3 (PEL).

Molecules are shown by their SMILES. Where two headings read alike, the source gives them in different places.

Sequence of ADK (P55263 whole entry): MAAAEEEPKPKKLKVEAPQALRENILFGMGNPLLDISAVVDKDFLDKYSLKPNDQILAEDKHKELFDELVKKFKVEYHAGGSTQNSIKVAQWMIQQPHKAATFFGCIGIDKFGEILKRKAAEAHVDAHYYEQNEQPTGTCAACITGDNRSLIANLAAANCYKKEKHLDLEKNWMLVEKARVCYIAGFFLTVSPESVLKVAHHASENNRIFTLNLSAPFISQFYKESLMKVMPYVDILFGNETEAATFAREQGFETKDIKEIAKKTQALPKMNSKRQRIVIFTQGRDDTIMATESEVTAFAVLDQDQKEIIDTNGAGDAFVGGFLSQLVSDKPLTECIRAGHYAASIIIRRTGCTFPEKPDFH

As for `Sc1ncnc2nc[nH]c12` [6-Mercaptopurine], the CC50 with U266 (MM) (setting [7]) is 10300 nM; in the data set on BC3 (PEL) (setting [8]), 5140 nM; in the data set on IBL-1 (EBV+ DLBCL) (setting [9]), greater than 100000 nM.

Turning to `Nc1ncnc2nc(-c3ccc(N4CCOCC4)nc3)cc(-c3cccc(Br)c3)c12` [ABT-702], on ADK, the concentration for half-maximal inhibition (IC50) (in general, the concentration needed to halve the response being measured) is 0.051 µM. In addition, the “rescue from 6-ETI-induced cell death” value in data set [1] is on record as “effectively rescued PEL cells from cell death”.

In the data set with PEL cell line, `CCSc1ncnc2c1nc(Br)n2[C@@H]1O[C@H](CO)[C@@H](O)[C@H]1O` [Br group at C8 position, 8-bromo, 6-thioehtyl purine riboside] displayed a half-maximal inhibitory concentration (IC50) of 8.13 µM.

For `CCSc1ncnc2c1nc(Cl)n2[C@@H]1O[C@H](CO)[C@@H](O)[C@H]1O` [C1 group at C8 position, 8-chloro, 6-thioethyl purine riboside], the midpoint of inhibition in the data set on PEL cell line, the IC50, lay at 1.41 µM.

For the compound `Nc1nc(Cl)nc2c1ncn2[C@H]1C[C@H](O)[C@@H](CO)O1` [Cladribine], the CC50 with U266 (MM) (setting [7]) is 29200 nM; in the data set on BC3 (PEL) (setting [8]), 5240 nM; in the data set on IBL-1 (EBV+ DLBCL) (Homo sapiens, 48 h, read-out: LC50 IBL-1 (DLBCL) in nM), 290 nM.

`Nc1ncnc2c1c(I)cn2[C@@H]1C[C@H](N)[C@@H](O)[C@H]1O` [Compound A-134974]: on ADK, the IC50 was 0.05 µM. Besides, the “rescue from 6-ETI-induced cell death” value in data set [1] is reported as “effectively rescued PEL cells from cell death”.

Take `O=c1[nH]cnc2c1ncn2[C@H]1CC[C@@H](CO)O1` [Didanosine]: the CC50 with U266 (MM) (setting [10]), in the data set on BC3 (PEL) (setting [11]) and in the data set with IBL-1 (EBV+ DLBCL) (setting [9]) was greater than 100000 nM each time.

With `Nc1nc(F)nc2c1ncn2[C@@H]1O[C@H](CO)[C@@H](O)[C@@H]1O` [Fludarabine], the CC50 is 90700 nM with U266 (MM) (48 hours, CellTiter-Glo, read-out: LC50 U266 (MM)); greater than 100000 nM in the data set with BC3 (PEL) (48 hours, CellTiter-Glo, read-out: LC50 BC3 (PEL)); 28900 nM in the data set with IBL-1 (EBV+ DLBCL) (48 hours, CellTiter-Glo, read-out: LC50 IBL-1 (DLBCL)).

Compound `CCSc1ncnc2c1nc(N=[N+]=[N-])n2C1OC(CO)C(O)C1O` (stereo not shown) [N3 group at C8 position] yielded an IC50 in the data set on PEL cell line of 1.13 µM.

In the case of `Nc1ncnc2c1ncn2[C@@H]1O[C@H](CO)[C@@H](O)[C@@H]1O` [Vidarabine], the CC50 in the data set on U266 (MM) (setting [10]), in the data set with BC3 (PEL) (setting [11]) and in the data set with IBL-1 (EBV+ DLBCL) (setting [9]) was greater than 100000 nM in each case.

`CCSc1ncnc2c1ncn2[C@@H]1O[C@@H]2COP(=O)(O)OC2C1O` (stereo partly shown) [c6-ETI]: in data set [2], the “tumor growth in vivo” value is given as “effectively inhibited tumor growth in vivo”. Moreover, in data set [3], the “effectiveness compared with 6-ETI” value was “equally as effective”. For the same compound, the LC50 result in data set [4] was “nanomolar range”.

As to `CCSc1ncnc2c1ncn2[C@@H]1O[C@H](COP(=O)(O)O)[C@@H](O)[C@H]1O` [p6-ETI], in data set [2], the “tumor growth in vivo” value is reported as “effectively inhibited tumor growth in vivo”. Moreover, the LC50 result in data set [5] was “high nM range”; in data set [4], “nanomolar range”. In data set [3], the “effectiveness compared with 6-ETI” value is reported as “equally effective as 6-ETI”. In [6], the “sensitivity of ADK-low resistant cell lines” value is recorded as “only partial sensitivity”. The “effect on resistance of IBL-1 cells” value with IBL-1 (EBV+ DLBCL) (IBL-1 express low levels of ADK, 48 hrs) is “partially overcomes resistance”.

(Values after patent US20190225643A1, “NOVEL NUCLEOSIDE ANALOGS AND USE THEREOF IN THERAPEUTIC TREATMENT” (CORNELL UNIVERSITY, priority 2016, published 2019).)
